Results on eleven compounds are retold here after patent US9499550B2 (BRISTOL-MYERS SQUIBB COMPANY, priority 2012, dated 2016).

Molecules are shown by their SMILES.

The test system of experiment [1] is HCV genotype 1b (Con1) replicon in HUH-7 cells. Briefly: HCV replicon luciferase reporter assay, genotype 1b. It is filed as cell-based. The following applies: Hepatitis C virus, Huh-7, 72 h, HCV genotype 1b replicon luciferase assay, 3 days incubation, range class, read-out: LE_1b (EC50, range). In outline: (§1)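 Replicon inhibition for both genotypes was measured as Renilla luciferase signal (EnduRen, 7.5 μM final, 2 h) after 3-day, 37° C exposure of replicon-bearing HUH-7 cells in 4% FCS DMEM, 0.5% DMSO. The 1b construct carries S1179I; the 1a H77 construct carries P1496L and S2204I. Twenty-point, 3-fold dilutions were fitted four-parametrically for EC50, and CC50 was taken from multiplexed Cell Titer-Blue.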
(In general: A replicon is a self-replicating genome or part of one, used to study replication in cells.)

The subject of experiment [2] is HCV genotype 1a (H77 strain) replicon in HUH-7 cells. Briefly: HCV replicon luciferase reporter assay, genotype 1a. Type of experiment: cell-based. The following applies: Hepatitis C virus, Huh-7, 72 h, HCV genotype 1a replicon luciferase assay, 3 days incubation, range class, read-out: LE_1a (EC50, range). A digest of the protocol: as §1

Turning to `COc1ccc2c(O[C@@H]3C[C@H]4C(=O)N[C@]5(C(=O)NS(=O)(=O)C6(C)CC6)C[C@H]5/C=C\CC[C@@H](C)C[C@@H](C)[C@H](NC(=O)O[C@@H]5C[C@@H]6C[C@@H]6C5)C(=O)N4C3)nc(-c3ccc(OC(C)C)c(F)c3)cc2c1` [Compound 3072, (1R,3r,5S)-bicyclo[3.1.0]hexan-3-yl((2R,6S,7R,9R,13aS,14aR,16aS,Z)-2-((3-(3-fluoro-4-isopropoxyphenyl)-6-methoxyisoquinolin-1-yl)oxy)-7,9-dimethyl-14a-(((1-methylcyclopropyl)sulfonyl)carbamoyl)-5,16-dioxo-1,2,3,5,6,7,8,9,10,11,13a,14,14a,15,16,16a-hexadecahydrocyclopropa[e]pyrrolo[1,2-a][1,4]diazacyclopentadecin-6-yl)carbamate], the EC50 in experiment [1] and in experiment [2] was less than 5.46 nM throughout.
As to `COc1ccc2c(O[C@@H]3C[C@H]4C(=O)N[C@]5(C(=O)NS(=O)(=O)C6CC6)C[C@H]5/C=C\CC[C@H](C)C[C@@H](C)[C@H](NC(=O)O[C@H](C)C(F)(F)F)C(=O)N4C3)nc(-c3ccc(OC(C)C)c(F)c3)cc2c1` [Compound 3073, (R)-1,1,1-trifluoropropan-2-yl ((2R,6S,7R,9S,13aS,14aR,16aS,Z)-14a-((cyclopropylsulfonyl)carbamoyl)-2-((3-(3-fluoro-4-isopropoxyphenyl)-6-methoxyisoquinolin-1-yl)oxy)-7,9-dimethyl-5,16-dioxo-1,2,3,5,6,7,8,9,10,11,13a,14,14a,15,16,16a-hexadecahydrocyclopropa[e]pyrrolo[1,2-a][1,4]diazacyclopentadecin-6-yl)carbamate], the EC50 is less than 5.46 nM in experiment [1] and 4.82 to 103 nM in experiment [2].
Taken in the same sequence, the figures for `COc1ccc2c(O[C@@H]3C[C@H]4C(=O)N[C@]5(C(=O)NS(=O)(=O)C6CC6)C[C@H]5/C=C\CC[C@@H](C)C[C@@H](C)[C@H](NC(=O)O[C@H](C)C(F)(F)F)C(=O)N4C3)nc(-c3ccc(OC(C)C)c(F)c3)cc2c1` [Compound 3074, (R)-1,1,1-trifluoropropan-2-yl ((2R,6S,7R,9R,13aS,14aR,16aS,Z)-14a-((cyclopropylsulfonyl)carbamoyl)-2-((3-(3-fluoro-4-isopropoxyphenyl)-6-methoxyisoquinolin-1-yl)oxy)-7,9-dimethyl-5,16-dioxo-1,2,3,5,6,7,8,9,10,11,13a,14,14a,15,16,16a-hexadecahydrocyclopropa[e]pyrrolo[1,2-a][1,4]diazacyclopentadecin-6-yl)carbamate] were less than 5.46 nM and less than 5.46 nM.
Taken in the same sequence, the figures for `COc1ccc2c(O[C@@H]3C[C@H]4C(=O)N[C@]5(C(=O)NS(=O)(=O)C6(C)CC6)C[C@H]5/C=C\CC[C@H](C)C[C@@H](C)[C@H](NC(=O)O[C@H](C)C(F)(F)F)C(=O)N4C3)nc(-c3ccc(OC(C)C)c(F)c3)cc2c1` [Compound 3075, (R)-1,1,1-trifluoropropan-2-yl ((2R,6S,7R,9S,13aS,14aR,16aS,Z)-2-((3-(3-fluoro-4-isopropoxyphenyl)-6-methoxyisoquinolin-1-yl)oxy)-7,9-dimethyl-14a-(((1-methylcyclopropyl)sulfonyl)carbamoyl)-5,16-dioxo-1,2,3,5,6,7,8,9,10,11,13a,14,14a,15,16,16a-hexadecahydrocyclopropa[e]pyrrolo[1,2-a][1,4]diazacyclopentadecin-6-yl)carbamate] were less than 5.46 nM and 4.82 to 103 nM.
For `COc1ccc2c(O[C@@H]3C[C@H]4C(=O)N[C@]5(C(=O)NS(=O)(=O)C6(C)CC6)C[C@H]5/C=C\CC[C@@H](C)C[C@@H](C)[C@H](NC(=O)O[C@H](C)C(F)(F)F)C(=O)N4C3)nc(-c3ccc(OC(C)C)c(F)c3)cc2c1` [Compound 3076, (R)-1,1,1-trifluoropropan-2-yl ((2R,6S,7R,9R,13aS,14aR,16aS,Z)-2-((3-(3-fluoro-4-isopropoxyphenyl)-6-methoxyisoquinolin-1-yl)oxy)-7,9-dimethyl-14a-(((1-methylcyclopropyl)sulfonyl)carbamoyl)-5,16-dioxo-1,2,3,5,6,7,8,9,10,11,13a,14,14a,15,16,16a-hexadecahydrocyclopropa[e]pyrrolo[1,2-a][1,4]diazacyclopentadecin-6-yl)carbamate], in that order: less than 5.46 nM and less than 5.46 nM.
Turning to `COc1ccc2c(O[C@@H]3C[C@H]4C(=O)N[C@]5(C(=O)NS(=O)(=O)C6(C)CC6)C[C@H]5/C=C\CC[C@H](C)C[C@@H](C)[C@H](NC(=O)OC(C)(C)C(F)(F)F)C(=O)N4C3)nc(-c3ccc(OC(C)C)c(F)c3)cc2c1` [Compound 3077, 1,1,1-trifluoro-2-methylpropan-2-yl((2R,6S,7R,9S,13aS,14aR,16aS,Z)-2-((3-(3-fluoro-4-isopropoxyphenyl)-6-methoxyisoquinolin-1-yl)oxy)-7,9-dimethyl-14a-(((1-methylcyclopropyl)sulfonyl)carbamoyl)-5,16-dioxo-1,2,3,5,6,7,8,9,10,11,13a,14,14a,15,16,16a-hexadecahydrocyclopropa[e]pyrrolo[1,2-a][1,4]diazacyclopentadecin-6-yl)carbamate], the EC50 in experiment [1] is less than 5.46 nM; in experiment [2] it was 4.82 to 103 nM.
Taken in the same sequence, the figures for `COc1ccc2c(O[C@@H]3C[C@H]4C(=O)N[C@]5(C(=O)NS(=O)(=O)C6(C)CC6)C[C@H]5/C=C\CC[C@@H](C)C[C@@H](C)[C@H](NC(=O)OC(C)(C)C(F)(F)F)C(=O)N4C3)nc(-c3ccc(OC(C)C)c(F)c3)cc2c1` [Compound 3078, 1,1,1-trifluoro-2-methylpropan-2-yl((2R,6S,7R,9R,13aS,14aR,16aS,Z)-2-((3-(3-fluoro-4-isopropoxyphenyl)-6-methoxyisoquinolin-1-yl)oxy)-7,9-dimethyl-14a-(((1-methylcyclopropyl)sulfonyl)carbamoyl)-5,16-dioxo-1,2,3,5,6,7,8,9,10,11,13a,14,14a,15,16,16a-hexadecahydrocyclopropa[e]pyrrolo[1,2-a][1,4]diazacyclopentadecin-6-yl)carbamate] were less than 5.46 nM and less than 5.46 nM.
For `COc1ccc2c(O[C@@H]3C[C@H]4C(=O)N[C@]5(C(=O)NS(=O)(=O)C6(C)CC6)C[C@H]5/C=C\CC[C@H](C)C[C@@H](C)[C@H](NC(=O)OC(C)(C)C(F)(F)F)C(=O)N4C3)nc(-c3ccc(F)cc3)cc2c1` [Compound 3079, 1,1,1-trifluoro-2-methylpropan-2-yl((2R,6S,7R,9S,13aS,14aR,16aS,Z)-2-((3-(4-fluorophenyl)-6-methoxyisoquinolin-1-yl)oxy)-7,9-dimethyl-14a-(((1-methylcyclopropyl)sulfonyl)carbamoyl)-5,16-dioxo-1,2,3,5,6,7,8,9,10,11,13a,14,14a,15,16,16a-hexadecahydrocyclopropa[e]pyrrolo[1,2-a][1,4]diazacyclopentadecin-6-yl)carbamate], in that order: less than 5.46 nM and 4.82 to 103 nM.
For `COc1ccc2c(O[C@@H]3C[C@H]4C(=O)N[C@]5(C(=O)NS(=O)(=O)C6(C)CC6)C[C@H]5/C=C\CC[C@@H](C)C[C@@H](C)[C@H](NC(=O)OC(C)(C)C(F)(F)F)C(=O)N4C3)nc(-c3ccc(F)cc3)cc2c1` [Compound 3080, 1,1,1-trifluoro-2-methylpropan-2-yl((2R,6S,7R,9R,13aS,14aR,16aS,Z)-2-((3-(4-fluorophenyl)-6-methoxyisoquinolin-1-yl)oxy)-7,9-dimethyl-14a-(((1-methylcyclopropyl)sulfonyl)carbamoyl)-5,16-dioxo-1,2,3,5,6,7,8,9,10,11,13a,14,14a,15,16,16a-hexadecahydrocyclopropa[e]pyrrolo[1,2-a][1,4]diazacyclopentadecin-6-yl)carbamate], in that order: less than 5.46 nM and less than 5.46 nM.
In the case of `COc1ccc2c(O[C@@H]3C[C@H]4C(=O)N[C@]5(C(=O)NS(=O)(=O)C6(C)CC6)C[C@H]5/C=C\CC[C@H](C)C[C@@H](C)[C@H](NC(=O)OC(C)(C)C)C(=O)N4C3)nc(-c3ccc(F)cc3)cc2c1` [Compound 3081, tert-butyl ((2R,6S,7R,9S,13aS,14aR,16aS,Z)-2-((3-(4-fluorophenyl)-6-methoxyisoquinolin-1-yl)oxy)-7,9-dimethyl-14a-(((1-methylcyclopropyl)sulfonyl)carbamoyl)-5,16-dioxo-1,2,3,5,6,7,8,9,10,11,13a,14,14a,15,16,16a-hexadecahydrocyclopropa[e]pyrrolo[1,2-a][1,4]diazacyclopentadecin-6-yl)carbamate], the EC50 was less than 5.46 nM in experiment [1] and 4.82 to 103 nM in experiment [2].
Taken in the same sequence, the figures for `COc1ccc2c(O[C@@H]3C[C@H]4C(=O)N[C@]5(C(=O)NS(=O)(=O)C6(C)CC6)C[C@H]5/C=C\CC[C@@H](C)C[C@@H](C)[C@H](NC(=O)OC(C)(C)C)C(=O)N4C3)nc(-c3ccc(F)cc3)cc2c1` [Compound 3082, tert-butyl ((2R,6S,7R,9R,13aS,14aR,16aS,Z)-2-((3-(4-fluorophenyl)-6-methoxyisoquinolin-1-yl)oxy)-7,9-dimethyl-14a-(((1-methylcyclopropyl)sulfonyl)carbamoyl)-5,16-dioxo-1,2,3,5,6,7,8,9,10,11,13a,14,14a,15,16,16a-hexadecahydrocyclopropa[e]pyrrolo[1,2-a][1,4]diazacyclopentadecin-6-yl)carbamate] were less than 5.46 nM and less than 5.46 nM.

A word on the EC50: it is the midpoint of the concentration-response curve.
